Blank lines part the entries; values can stand above or below the compound they belong to.
Assays:
[1] = system: HCV; conditions: cited from earlier work
[2] = system: HCV; conditions: monotherapy; cited from earlier work
[3] = system: human hepatoma Huh7 cells; test: Phosphorylation in Huh7 replicon cells; assay type: in vitro ADME
Excerpt: (FIG. 2) Since the cell specific phosphorylation takes place in the target tissue for HCV replication, there is the potential that 4′-AU will be selectively phosphorylated in the target tissue vis-à-vis other tissues thereby minimizing off target toxicity.

[4] = system: HCV replicon (human hepatoma Huh7 cells); conditions: cited from earlier work
[5] = system: primary human hepatocytes; test: Uptake and phosphorylation in primary human hepatocytes; assay type: in vitro ADME
Experimental: The analysis of uptake and phosphorylation of the nucleoside analog 4AU in primary human hepatocytes was performed as previously published (Ma, H. et al. J. Biol. Chem. 2007, 282:29812-29820). Fresh human hepatocytes were plated and incubated with ^3H-labeled 4AU for different time spans. At the time of cell harvest the cell culture medium was aspirated, and the cells were washed once with cold phosphate-buffered saline. The cells were scraped into 1 mL of pre-chilled 60% (v/v) methanol containing 10 mM EDTA and extracted in methanol for 24 h at −20° C. The extracted samples were then centrifuged at 10,000×g for 15 min to remove cell debris. The supernatant was transferred to new tubes and evaporated in a speed vacuum at room temperature. The dried pellets of cell extracts were dissolved in H2O. Before HPLC analysis, cell extract samples were spiked with unlabeled reference standards 4AU and 4AU-mono-, di- and triphosphate derivatives.
The phosphorylation derivatives of 4AU were separated by ion exchange HPLC with a Whatman Partisil 10 SAX (4.6×250 mm) column coupled to a radiometric detector (β-RAM, IN/US Systems, Inc.). The mobile phase gradient changed linearly from 99% buffer A (H2O) and 1% buffer B (0.5 M KH2PO4+0.8 M KCl) to 100% buffer B between 4 and 16 minutes. 100% buffer B ran from 16 minutes to 26 minutes and changed back to 100% A in 1 minute. Buffer A ran until 32 minutes. […]

[6] = target: T1, HCV polymerase (NS5B570n-Con1) (Hepatitis C virus genotype 1b, UniProt Q9WMX2); test: HCV NS5B RNA polymerase activity; assay type: biochemical, HCV Con1 strain
T1 construct: a 21 amino acid C-terminal deletion of full-length HCV polymerase derived from HCV Con1 strain; made in house; host or cells: E. coli BL21(DE3) pLysS, plasmid pET17b
Experimental: The enzymatic activity of HCV polymerase (NS5B570n-Con1) was measured as the incorporation of radiolabeled nucleotide monophosphates into acid insoluble RNA products. Unincorporated radiolabeled substrate was removed by filtration and scintillant was added to the washed and dried filter plate containing radiolabeled RNA product. The amount of RNA product generated by NS5B570n-Con1 at the end of the reaction was directly proportional to the amount of light emitted by the scintillant.
The HCV polymerase used in the enzymatic activity assay is a 21 amino acid C-terminal deletion of full-length HCV polymerase derived from HCV Con1 strain, genotype 1b (GenBank accession number AJ242654) (NS5B570n-Con1). The NS5B570n-Cont was sub-cloned downstream to the T7 promoter of the plasmid expression construct pET17b and transformed into E. coli strain BL21(DE3) pLysS for protein expression. A single colony was used to start an innoculum for a 10 L culture in LB media supplemented with 100 μg/mL ampicillin at 37° C. […]
The amount of light emitted from the scintillant was converted to counts per minute (CPM) on a Topcount® plate reader (Perkin-Elmer, Energy Range: Low, Efficiency Mode: Normal, Count Time: 1 min, Background Subtract: none, Cross talk reduction: Off).
Data was analyzed in Excel® (Microsoft®) and ActivityBase® (Idbs®). […] All data was expressed as a percentage of the positive control. […]

melting point: 118 to 120 °C
SMILES: CCC(=O)O[C@H]1[C@H](n2ccc(=O)[nH]c2=O)O[C@@](CO)(N=[N+]=[N-])[C@H]1OC(=O)CC [I-1, Propionic acid (2R,3R,4S,5R)-5-azido-2-(2,4-dioxo-3,4-dihydro-2H-pyrimidin-1-yl)-5-hydroxymethyl-4-propionyloxy-tetrahydro-furan-3-yl ester]

SMILES: [N-]=[N+]=N[C@]1(CO)O[C@@H](n2ccc(N)nc2=O)[C@H](O)[C@@H]1O [4′-AC, 4′-azido-cytidine]
inhibition of viral replication [1]: potent inhibitor of viral replication

SMILES: NC(=O)c1ncn([C@@H]2O[C@H](CO)[C@@H](O)[C@H]2O)n1 [ribavirin, 1-((2R,3R,4S,5R)-3,4-Dihydroxy-5-hydroxymethyl-tetrahydro-furan-2-yl)-1H-[1,2,4]triazole-3-carboxylic acid amide]
effect on serum levels of HCV-RNA [2]: does not lower serum levels of HCV-RNA | patients with serum amino transferase levels reduced to normal [2]: 40%

SMILES: [N-]=[N+]=N[C@]1(CO)O[C@@H](n2ccc(=O)[nH]c2=O)[C@H](O)[C@@H]1O [4′-AU, 4′-azido-uridine]
phosphorylation in Huh7 cells used in the replicon assay [3]: lack of phosphorylation | activity in the replicon assay [4]: inactive | efficiency of phosphorylation relative to 4′-AC ([5]; 4′-AU vs 4′-AC, human hepatocytes): approximately 10 fold | phosphorylation in primary human hepatocytes ([5]; primary human hepatocytes): phosphorylation does occur efficiently

melting point: 158 °C
SMILES: CC(=O)OC(O)[C@@]1(N=[N+]=[N-])O[C@@H](n2ccc(=O)[nH]c2=O)[C@@](O)(OC(C)=O)[C@@]1(O)OC(C)=O (some centres unmarked)

SMILES: [N-]=[N+]=N[C@]1(COP(=O)(O)OP(=O)(O)OP(=O)(O)O)O[C@@H](n2ccc(N)nc2=O)[C@H](O)[C@@H]1O [4′-AC-triphosphate, 4′-azido-cytidine triphosphate]
IC50 [6]: 29 ± 0.13 µM

SMILES: [N-]=[N+]=N[C@]1(COP(=O)(O)OP(=O)(O)OP(=O)(O)O)O[C@@H](n2ccc(=O)[nH]c2=O)[C@H](O)[C@@H]1O [4′-AU triphosphate, 4-azidouridine triphosphate]
IC50 [6]: 0.46 ± 0.088 µM
